Laboratory results: patent publication US20260209243A1, “A BIOORTHOGONAL CYCLOADDITION REACTION AND USE THEREOF” (NANJING UNIVERSITY, priority 2022, published 2026)

How the values were obtained:
[1] = test system: SKOV3 cells; test: MTT assay; format: cell-based; details: 0-200 μM, 24 h
Method: Relative cell viability of SKOV3 cells after incubation with FuA or PDO6. SKOV3 cells were incubated with 0-200 μM FuA or PDO6 for 24 h. MTT was used to assess the cell viability. Data are shown as mean±SEM (n=3).
SKOV3 cells were seeded in 96-well plates with a concentration of 10,000 cells per well. After 12 h, FuA or PDO6 was added with final concentrations of 0, 40, 80, 120, 160, 200 μM. Then, SKOV3 cells were further cultured for 24 h. MTT assay was then carried out. For each well, 20 μL MTT solution (final concentration, 1 mg/mL) was added and 150 μL DMSO was added after 4 h′ incubation. The absorbance at 490 nm was then measured to indicate the cell viability.

[2] = Kinetics studies: DFC reaction of FuA with oD1 in PBS; details: pH 7.4 PBS buffer
Method: (§1) DFC reaction in PBS and on proteins. (A) The DFC reaction of oD1 with FuA in pH 7.4 PBS buffer; (B) Time-dependent labelling of 2 mg/mL BSA-FuA with 100 nM oD1-TAMRA for time indicated. Fluorescence signals were acquired using Cy3 channel. Coomassie staining was used to assess BSA loading; (C) Schematic illustration on the single-site modification of the protein oD1 (C156)-SNAP-GFP through the DFC reaction. SNAP-GFP (2 mg/mL) in PBS (pH=7.4) was mixed with 1.5 equivalents of BG-PEG4-oD1 and was incubated at room temperature for 20 min to give oD1 (C156)-SNAP-GFP.
(§2) Measurement of second order rate constants of (A) reactions of o-dione (25 μM) with furan-2(3H)-one (250 μM) in 1×PBS (pH=7.4) and (B) reactions of oD1 (25 μM) with α-AL (250 μM) in different pH buffer. (When pH=5, 6; oD1 is 250 μM and α-AL is 2.5 mM) by plotting ln[1/(1−x)] versus time of o-dione with furan-2(3H)-one reaction (x represents the percent conversion of o-dione).
All kinetics experiments were carried out at room temperature in 1×PBS (pH=7.4). […] Pseudo-first order rate constant kobs was determined by plotting ln[1/(1−x)] versus time and analysis by linear regression. x represents the percent conversion of o-dione. […] The second rate constant k2 was calculated by kobs/[furan-2(3H)-one]. […]

[3] = target: T1, BSA-FuA (Bos taurus, UniProt P02769); test: In-gel fluorescence assay of DFC reaction on BSA-FuA; format: biochemical, bovine; details: incubated in PBS; PDO type cycloadduct confirmed by LC-MS/MS
T1 construct: purchased Sangon Biotech (Shanghai, China)
T1 sequence (P02769 25-607): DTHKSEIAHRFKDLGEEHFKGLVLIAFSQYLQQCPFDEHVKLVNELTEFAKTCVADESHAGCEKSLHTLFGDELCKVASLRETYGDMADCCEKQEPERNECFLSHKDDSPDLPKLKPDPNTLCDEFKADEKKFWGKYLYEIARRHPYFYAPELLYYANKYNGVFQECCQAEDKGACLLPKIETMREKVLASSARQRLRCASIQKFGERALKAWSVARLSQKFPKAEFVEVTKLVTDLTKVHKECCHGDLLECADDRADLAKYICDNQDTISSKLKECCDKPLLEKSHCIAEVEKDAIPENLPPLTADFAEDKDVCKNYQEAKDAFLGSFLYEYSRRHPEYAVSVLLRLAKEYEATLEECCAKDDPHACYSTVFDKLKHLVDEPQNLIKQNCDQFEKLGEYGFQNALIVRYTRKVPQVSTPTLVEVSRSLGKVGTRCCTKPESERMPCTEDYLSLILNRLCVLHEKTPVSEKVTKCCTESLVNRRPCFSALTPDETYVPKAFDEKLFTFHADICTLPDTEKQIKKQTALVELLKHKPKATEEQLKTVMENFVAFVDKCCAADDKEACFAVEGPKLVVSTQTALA
Method: as §1
DFC-based BSA protein labelling and characterization. […]
A solution of BSA (2 mg/mL) in PBS (pH=7.4) was mixed with 200 equivalents of FuA NHS ester and was shaken (900 rpm) at room temperature for 4 h. […] The concentration of BSA-FuA was quantified with BCA protein assay kit (Pierce).
For concentration-dependent reaction, BSA-FuA (2 mg/mL) was incubated with various concentrations of oD1-TAMRA (0-1000 nM) in PBS at room temperature for 30 min. […] Protein samples (20 μg) were further analyzed by gel electrophoresis using 12% polyacrylamide gels and imaged with Bio-Rad Chemdoc imaging system using corresponding filters. Protein loading was assessed by staining with Coomassie Blue according to manufacturer's instructions.

[4] = Kinetics studies: cycloaddition of o-diones with α-AL; details: aqueous solution, pH ranging from 5 to 9
Method: The cycloaddition kinetics of α-AL with different o-diones in pH 7.4 PBS buffer or in aqueous solution with indicated pH.
as §2
All kinetics experiments were carried out at room temperature in 1×PBS (pH=7.4). Second order kinetics were performed by combining o-dione and furan-2(3H)-one in a 1:10 ratio, and the concentration of o-dione is 25/250 μM. Pseudo-first order rate constant kobs was determined by plotting ln[1/(1−x)] versus time and analysis by linear regression. x represents the percent conversion of o-dione. The slope of the linear equation is kobs. The second rate constant k2 was calculated by kobs/[furan-2(3H)-one]. The reported errors for rate constants are based on the standard deviation of the mean for experiments performed in triplicate.

[5] = test system: live cells; details: stated as known; cited from earlier work

O=C(O)CCCC1=CCC(=O)O1 [FuA, 4-(5-oxo-4,5-dihydrofuran-2-yl)butanoic acid]
cytotoxicity / compatibility with live cells (MTT) [1]: good compatibility with live cells | second-order constant of DFC reaction of oD1 with FuA [2]: about 4 M^−1 s^−1

O=C1C(=O)c2ccccc2-c2ccccc21 [PQ, phenanthrene-9,10-dione]
fluorescence of BSA-FuA after incubation [3]: fluorescence turn-on

O=C(O)c1ccc2c(c1)-c1ccccc1C(=O)C2=O [oD1]
pH dependence of reaction kinetics with α-AL [4]: increase of pH under which α-AL is stable enough apparently accelerates the cycloaddition reaction | compatibility with live cells [5]: compatible with live cells
